Results as given in article PMC4655142 (Neuropharmacology, 2015).
Like-named read-outs stand apart in the source and are kept apart here. Blank lines part the entries; values can stand above or below the molecule they belong to.

Columns and labels:
[1] = cited from earlier work
[2] = system: C57Bl/6J mice; assay: Tolerance to acute nicotine after chronic treatment; format: in vivo; conditions: Mus musculus, ip
[3] = cited from earlier work; remark: listed apart in the source
[4] = cited from earlier work; remark: listed apart in the source
[5] = target: [125I]-epibatidine binding sites (α4β2-nAChR), cortex membranes (Mus musculus, UniProt O70174+Q9ERK7); assay: Inhibition of [125I]-epibatidine binding to cortex membranes; set-up: species or system C57Bl/6J mice
[125I]-epibatidine binding sites (α4β2-nAChR), cortex membranes, sequence (O70174 31-629): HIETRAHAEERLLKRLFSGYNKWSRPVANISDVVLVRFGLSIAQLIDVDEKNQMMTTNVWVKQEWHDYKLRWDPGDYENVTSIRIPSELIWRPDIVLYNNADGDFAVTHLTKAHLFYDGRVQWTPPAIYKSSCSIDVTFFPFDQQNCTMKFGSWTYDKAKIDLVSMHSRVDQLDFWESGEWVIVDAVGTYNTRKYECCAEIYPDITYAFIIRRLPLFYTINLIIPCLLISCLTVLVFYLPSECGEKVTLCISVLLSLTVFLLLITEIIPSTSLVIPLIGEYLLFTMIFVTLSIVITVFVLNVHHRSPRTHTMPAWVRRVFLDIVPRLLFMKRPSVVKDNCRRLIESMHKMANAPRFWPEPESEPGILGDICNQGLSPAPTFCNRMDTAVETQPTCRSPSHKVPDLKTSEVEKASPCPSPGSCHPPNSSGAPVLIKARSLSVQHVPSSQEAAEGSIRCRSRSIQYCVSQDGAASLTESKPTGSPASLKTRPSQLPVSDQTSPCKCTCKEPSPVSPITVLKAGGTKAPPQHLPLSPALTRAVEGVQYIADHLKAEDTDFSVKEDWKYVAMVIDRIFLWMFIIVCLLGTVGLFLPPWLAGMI
[125I]-epibatidine binding sites (α4β2-nAChR), cortex membranes, sequence (Q9ERK7 26-501): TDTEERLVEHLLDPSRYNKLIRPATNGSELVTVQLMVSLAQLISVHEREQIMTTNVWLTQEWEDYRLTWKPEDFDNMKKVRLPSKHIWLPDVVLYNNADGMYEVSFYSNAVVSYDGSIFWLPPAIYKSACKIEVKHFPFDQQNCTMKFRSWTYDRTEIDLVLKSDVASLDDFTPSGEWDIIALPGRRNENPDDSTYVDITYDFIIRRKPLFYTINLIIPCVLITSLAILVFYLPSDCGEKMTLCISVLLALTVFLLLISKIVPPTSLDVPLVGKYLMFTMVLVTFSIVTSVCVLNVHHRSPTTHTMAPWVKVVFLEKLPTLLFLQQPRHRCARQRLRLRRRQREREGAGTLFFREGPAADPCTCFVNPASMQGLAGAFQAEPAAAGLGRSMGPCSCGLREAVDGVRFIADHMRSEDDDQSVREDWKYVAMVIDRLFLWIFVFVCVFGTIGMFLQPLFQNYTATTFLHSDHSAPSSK

Compound: CN1CCC[C@H]1c1cccnc1 [Nicotine]
Plasma level ([1]; rat, sc infusion of 2.4 mg/kg/day, ref Rowell and Li, 1997): 43 ng/mL | Plasma level ([1]; rats, 0.8 mg/kg/day, ref Ghosheh et al, 2001): 6.5 ng/mL | Plasma level ([1]; rats, 6.0 mg/kg/day, ref Hussman, Turner et al, 2012, Doura et al, 2008): 146 to 313 ng/mL | ED50 ([2]; 24 h, read-out: ED50 of acute ip nicotine, Body temperature): 0.8 ± 0.05 mg/kg | ED50 ([2]; 24 h, read-out: ED50 of acute ip nicotine, Open field): 0.6 ± 0.06 mg/kg | ED50 ([2]; 24 h, read-out: ED50 of acute ip nicotine, Y-maze cross): 0.49 ± 0.04 mg/kg | ED50 ([2]; 24 h, read-out: ED50 of acute ip nicotine, Y-maze rear): 0.38 ± 0.03 mg/kg | ED50 ([2]; read-out: ED50 of acute ip nicotine, Body temperature): 0.88 ± 0.09 mg/kg | ED50 ([2]; read-out: ED50 of acute ip nicotine, Open field): 0.55 ± 0.06 mg/kg | ED50 ([2]; read-out: ED50 of acute ip nicotine, Y-maze cross): 0.47 ± 0.06 mg/kg | ED50 ([2]; read-out: ED50 of acute ip nicotine, Y-maze rear): 0.38 ± 0.05 mg/kg | Plasma level ([3]; mice, 12-24 mg/kg/day, ref Marks, Rowell et al., 2004, Matta et al, 2007): 40 to 80 ng/mL | Plasma level ([3]; mice, similar chronic treatment protocols, ref Marks, Rowell et al., 2004): 40 to 80 ng/mL | Plasma level ([3]; mouse, in vivo, sc, 1 mg/kg): 160 ng/mL | Plasma level ([4]; human smokers, pre-quit, smoking cessation trial, ref Dobrinas et al, 2011): up to 52 ng/ml

Ki [5]: 0.11 ± 0.01 nM
Compound: c1cnc2cc3c(cc2n1)[C@@H]1CNC[C@H]3C1 [Varenicline]
brain:plasma ratio ([1]; rats, ref Hussmann, Turner et al, 2012): 1.5 | Peak plasma level ([3]; mice, single oral dose of 3 mg (or ~120 mg/kg), ref Obach et al, 2006): 293 ng/mL | Plasma level ([4]; humans taking varenicline, smoking cessation study, ref Dobrinas et al, 2011): up to 20 ng/ml | Plasma level ([4]; humans, single oral dose 1 mg (~[…]), ref Obach et al, 2006, Al-Haj et al, 2013): 4 to 6 ng/mL | t ½ ([4]; humans, ref Obach et al, 2006): 17.6 h
